Consider 3 molecules from US5985885A, “Quinazoline-4-amino-2-(piperidine-1-yl-4-substituted) derivatives having antihypertensive activity, a method for their preparation and their pharmaceutical use” (priority 1996, dated 1999).

SMILES strings stand for the structures. Counter-ions that a name gives are not always drawn. Like-named read-outs stand apart in the source and are kept apart here.

For series [1], the target named is T1, 5-HT2 receptors (isolated rabbit aorta) (Oryctolagus cuniculus, UniProt G1SYA7).
T1 construct: Four rings formed from rabbit aorta were joined together to form a chain; from tissue; host or cells: isolated rabbit aorta rings
T1 sequence (G1SYA7 1-469): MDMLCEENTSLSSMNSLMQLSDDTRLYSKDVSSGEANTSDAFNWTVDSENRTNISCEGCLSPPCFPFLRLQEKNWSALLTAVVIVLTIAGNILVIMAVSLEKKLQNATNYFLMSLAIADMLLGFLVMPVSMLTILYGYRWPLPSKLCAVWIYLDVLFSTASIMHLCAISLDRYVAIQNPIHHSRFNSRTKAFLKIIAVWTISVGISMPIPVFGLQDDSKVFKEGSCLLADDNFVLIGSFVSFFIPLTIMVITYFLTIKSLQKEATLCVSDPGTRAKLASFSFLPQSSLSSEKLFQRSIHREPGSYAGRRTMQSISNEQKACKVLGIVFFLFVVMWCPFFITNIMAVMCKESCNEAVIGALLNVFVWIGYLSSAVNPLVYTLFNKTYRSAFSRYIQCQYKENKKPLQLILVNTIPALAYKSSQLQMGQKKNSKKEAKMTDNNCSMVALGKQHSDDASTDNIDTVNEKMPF
The series is described as follows: Antagonism of serotonin-induced contraction of isolated rabbit aorta. The settings on record: for IC50: isolated rabbit aorta, 37° C., compound 10 min before agonist, limits (p < 0.05). Here is the method: The antagonist activity of some of the compounds of the invention on the contractile activity of seratonin on isolated rabbit aorta, effected principally by way of the 5-HT2 receptors, is reported here by way of example. The method of Feniuk et al [Br. J. Pharmacol. (1985), 86, 697-704] was used, with slight modifications. Four rings formed from rabbit aorta were joined together to form a chain; the preparation was placed in an isolated organ bath in the presence of Krebs at 37° C. and attached to an isometric transducer, a tension of 2 g being applied and oxygenation was carried out continuously with O2 --CO2 (95-5 v/v). A seratonin concentration(0.3 μM) was used that was capable of causing sub-maximal contraction of the preparation. […] The results obtained in this way are given in Table 4 below which, for several of the compounds of the invention gives IC50 values calculated by the regression method on a set of at least 2 experiments at 5 different concentrations for each of the compounds examined, these being compared with values obtained for several reference compounds.

Series [2] concerns the target T2, alpha1B adrenergic receptor (rat liver) (Rattus norvegicus, UniProt P15823).
T2 sequence (P15823 1-515): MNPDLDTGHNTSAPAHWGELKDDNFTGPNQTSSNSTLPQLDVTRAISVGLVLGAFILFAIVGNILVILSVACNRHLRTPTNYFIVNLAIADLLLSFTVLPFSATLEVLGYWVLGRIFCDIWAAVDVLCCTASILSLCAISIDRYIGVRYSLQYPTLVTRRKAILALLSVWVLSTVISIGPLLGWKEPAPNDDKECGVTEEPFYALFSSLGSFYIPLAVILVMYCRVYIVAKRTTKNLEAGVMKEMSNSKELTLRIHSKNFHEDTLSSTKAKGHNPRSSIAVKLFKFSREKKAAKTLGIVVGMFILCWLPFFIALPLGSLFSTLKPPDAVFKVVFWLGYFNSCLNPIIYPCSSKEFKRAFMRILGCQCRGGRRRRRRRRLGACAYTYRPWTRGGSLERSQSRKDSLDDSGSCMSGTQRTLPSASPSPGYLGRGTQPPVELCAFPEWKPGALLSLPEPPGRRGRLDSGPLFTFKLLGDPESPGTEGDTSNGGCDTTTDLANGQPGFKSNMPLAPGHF
Briefly: [3H]-prazosin binding in rat liver.

For series [3], the target named is alpha1A + alpha1C adrenergic receptor (human prostate). Briefly: [3H]-prazosin binding in human prostate. The note with it: alpha1A + alpha1C subtype, pH 7.5, 30 min, 25° C., read-out: Inhibition of the binding of [3H]-prazosin IC50.
Series [4] deals with spontaneously hypertensive (SHR) rat. The series is described as follows: Anti-hypertensive activity in the spontaneously hypertensive (SHR) rat (oral). In kind it is in vivo. An excerpt:
Animals having a mean basal systolic pressure of not less than 180 mmHg were used.

The subject of series [5] is anaesthetised normotensive rat. The series is described as follows: Hypotensive activity in the anaesthetised normotensive rat (IV). It is filed as in vivo. The settings on record: for ED30: Rattus norvegicus, read-out: Reduction in mean arterial pressure ED30. As to the method:
In order to evaluate the in vivo activity, some of the compounds of the invention were administered (IV) in bolus form to the normotensive rat anaesthetised with urethane plus ketamine. The compounds were administered in at least three doses in experiments performed in duplicate so as to enable the calculation of ED30 values, that is, the dose in mg/kg that reduces the mean basal arterial pressure by 30%. The compounds of the invention, and several reference standards, were dissolved in dilute hydrochloric acid at a physiologically acceptable pH, and physiological solution was administered in a volume of 3 ml/kg. Evaluations were made at two time periods, that is, the intervals 0-30 min and 30-60 min after administration.

For series [6], the target named is T3, alpha1A adrenergic receptor (rat GSM) (Rattus norvegicus, UniProt P43140).
T3 sequence (P43140 1-466): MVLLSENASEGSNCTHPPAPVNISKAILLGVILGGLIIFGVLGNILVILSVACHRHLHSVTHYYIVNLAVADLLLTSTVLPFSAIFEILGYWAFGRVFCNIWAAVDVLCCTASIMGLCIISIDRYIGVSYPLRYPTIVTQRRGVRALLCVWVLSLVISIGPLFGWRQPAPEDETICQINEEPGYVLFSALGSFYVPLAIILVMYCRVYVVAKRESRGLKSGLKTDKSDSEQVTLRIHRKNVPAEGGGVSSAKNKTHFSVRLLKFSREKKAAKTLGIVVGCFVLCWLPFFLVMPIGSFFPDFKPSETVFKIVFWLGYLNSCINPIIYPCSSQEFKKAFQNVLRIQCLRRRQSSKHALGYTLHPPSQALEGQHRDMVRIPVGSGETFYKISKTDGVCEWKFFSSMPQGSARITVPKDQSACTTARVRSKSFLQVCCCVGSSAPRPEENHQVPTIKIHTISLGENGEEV
Briefly: [3H]-prazosin binding in rat submaxillary glands (GSM). The note with it: alpha1A subtype, pH 7.4, 45 min, 25° C., read-out: Inhibition of the binding of [3H]-prazosin IC50.

The next series in a line: in vivo. The note with it: rat.
Series [7] deals with alpha1A, alpha1B and alpha1C adrenergic receptor subtypes. Briefly: [3H]-prazosin binding, alpha1 subtypes together (Table 3 overall). The settings on record: reference compounds versus compounds of the invention/prazosin.

Turning to `COc1cc2nc(N3CCC(c4ccccn4)CC3)nc(N)c2cc1OC` [Compound 7, 1-(4-amino-6,7-dimethoxy-2-quinazolinyl)-4-(2-pyridyl)piperidine(hydrochloride)], the IC50 in series [1] was 54700 nM. In series [2], the IC50 came out at 8.2 nM. For the same molecule, the IC50 in series [3] came out at 5 nM. Besides, in series [4], the “anti-hypertensive action (in words)” value is “about as powerful as prazosin”; the “Cardiac frequency, max effect at 3 mg/kg” value was “+0.9 % vs basal”; the “Systolic pressure, max effect at 3 mg/kg” value was -22.7 % vs basal. In addition, the ED20 in series [4] (Rattus norvegicus, 2 h, 0-120 min, NC: not calculable, read-out: Systolic pressure ED20 (0-120 min)) was 2.2 mg/kg. Further, the ED30 in series [5] (0.5 h, IV bolus, interval 0-30 min) worked out at 0.08 mg/kg. Besides, the ED30 in series [5] (1 h, IV bolus, interval 30-60 min) was 0.09 mg/kg. Also, the IC50 in series [6] came out at 3.1 nM. For the same molecule, the bioavailability in the series “in vivo” (plasma, po, 15 mg/kg OS vs 1 mg/kg IV, read-out: relative bioavailability (AUC OS/AUC IV, dose corrected)) was around 80%. Moreover, in “in vivo” (plasma, po, OS 15 mg/kg), the AUC worked out at 3620 ng·h/mL, the concentration at 0.25 h came out at 230 ng/mL, the concentration at 0.5 h was 360 ng/mL and the concentration at 1 h came out at 480 ng/mL. The molecule further registered a concentration at 2 h in “in vivo” (plasma, po, OS 15 mg/kg) of 390 ng/mL. Moreover, in “in vivo” (plasma, po, OS 15 mg/kg, 3 h), the concentration at 3 h was determined as 340 ng/mL. In the series “in vivo” (plasma, po, OS 15 mg/kg, 4 h), this molecule came in with a concentration at 4 h of 320 ng/mL. This molecule displayed a concentration at 6 h in the series “in vivo” (plasma, po, OS 15 mg/kg, 6 h) of 280 ng/mL. The concentration at 8 h in “in vivo” (plasma, po, OS 15 mg/kg, 8 h) was 180 ng/mL. In the series “in vivo” (plasma, po, OS 15 mg/kg, 12 h), this molecule registered a concentration at 12 h of 80 ng/mL. In the series “in vivo” (plasma, IV 1 mg/kg), the AUC came out at 300 ng·h/mL, the concentration at 0.25 h amounted to 300 ng/mL, the concentration at 0.5 h amounted to 180 ng/mL and the concentration at 1 h came to 100 ng/mL. Besides, the concentration at 2 h in the series “in vivo” (plasma, IV 1 mg/kg) was 40 ng/mL. In addition, the concentration at 0.083 h in “in vivo” (plasma, IV 1 mg/kg, 0.083 h) came to 420 ng/mL. In addition, the Plasma concentration in “in vivo” (IV 1 mg/kg, 6 h) was 0 ng/mL. In the series “in vivo” (plasma, iv, 1 mg/kg), this molecule came in with a concentration at 3 h of 20 ng/mL and a concentration at 4 h of 10 ng/mL. The molecule also returned a concentration at 24 h in the series “in vivo” (plasma, po, 15 mg/kg) of 20 ng/mL. Moreover, the half-life in “in vivo” (plasma, read-out: half-life, terminal elimination phase (converted)) was around 6 h.
Regarding `O=C(c1ccc(F)cc1)C1CCN(CCn2c(=O)[nH]c3ccccc3c2=O)CC1` [Ketanserine, reference compound], the IC50 in series [1] was 228 nM; in series [2] it was 29.9 nM; in series [3], 270 nM; in series [6] it was 48.2 nM. Also, the “times less powerful (on average)” value in series [7] is reported as 10 to 30 times.
`COc1cccc(OC)c1OCCNCC1COc2ccccc2O1` (stereo not drawn) [WB-4101, reference compound] displayed an IC50 in series [1] above 145000 nM. In addition, the “5-HT2-antagonist activity (in words)” value in series [1] (rabbit aorta) is “inactive until higher doses (50 μg/ml)”. Further, in series [7], the “times less powerful (on average)” value is recorded as 10 to 30 times. In series [4], the “anti-hypertensive action (in words)” value is “inactive”; the “Cardiac frequency, max effect at 3 mg/kg” value is recorded as -5.7 % vs basal; the “Systolic pressure, max effect at 3 mg/kg” value is -2.6 % vs basal. For the same molecule, in series [4] (0-120 min, NC: not calculable), the “Systolic pressure ED20 (0-120 min)” value is given as “INACTIVE”. Besides, in series [5] (IV bolus), the “hypotensive activity compared with prazosin/compounds (in words)” value is given as “less active”. Further, the ED30 in series [5] (iv, 0.5 h) turned out to be 0.13 mg/kg. For the same molecule, the ED30 in series [5] (iv, 1 h) is 0.29 mg/kg. Moreover, the IC50 in series [6] came out at 16.5 nM.

By IC50 is commonly meant the point on the concentration scale where inhibition reaches its midpoint. What is called AUC is concentration integrated over time. A lower AUC goes with low exposure. As a reminder, the half-life is the time needed for the level to fall by half in the phase considered.
